Measured values published in article PMC10174618, “Monoterpenoid aryl hydrocarbon receptor allosteric antagonists protect against ultraviolet skin damage in female mice” (Nature Communications, 2023).

What was measured:
Test in all cases: biochemical
Set-up in all cases: KINOMEscan scanMAX active site-directed competition binding assay, percent of control, 468 kinases
Conditions in all cases: competition binding, percent of control
MRCKA = biological target: T1, MRCKA (Homo sapiens, UniProt Q5VT25)
T1 construct: gene CDC42BPA
In short: (§1)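 Single-concentration screen (100 μM S-carvone) in a competition binding panel of 468 human kinases (KINOMEscan scanMAX); results given as percent of control, hit cutoff 35%.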

SLK = SLK (Homo sapiens, UniProt Q9H2G2)
In short: as §1

PYK2 = biological target: T2, PYK2 (Homo sapiens, UniProt Q14289)
T2 construct: gene PTK2B
In short: as §1

MEK5 = biological target: T3, MEK5 (Homo sapiens, UniProt Q13163)
T3 construct: gene MAP2K5
In short: as §1

CDKL5 = CDKL5 (Homo sapiens, UniProt O76039)
CDKL5, sequence (O76039 whole entry): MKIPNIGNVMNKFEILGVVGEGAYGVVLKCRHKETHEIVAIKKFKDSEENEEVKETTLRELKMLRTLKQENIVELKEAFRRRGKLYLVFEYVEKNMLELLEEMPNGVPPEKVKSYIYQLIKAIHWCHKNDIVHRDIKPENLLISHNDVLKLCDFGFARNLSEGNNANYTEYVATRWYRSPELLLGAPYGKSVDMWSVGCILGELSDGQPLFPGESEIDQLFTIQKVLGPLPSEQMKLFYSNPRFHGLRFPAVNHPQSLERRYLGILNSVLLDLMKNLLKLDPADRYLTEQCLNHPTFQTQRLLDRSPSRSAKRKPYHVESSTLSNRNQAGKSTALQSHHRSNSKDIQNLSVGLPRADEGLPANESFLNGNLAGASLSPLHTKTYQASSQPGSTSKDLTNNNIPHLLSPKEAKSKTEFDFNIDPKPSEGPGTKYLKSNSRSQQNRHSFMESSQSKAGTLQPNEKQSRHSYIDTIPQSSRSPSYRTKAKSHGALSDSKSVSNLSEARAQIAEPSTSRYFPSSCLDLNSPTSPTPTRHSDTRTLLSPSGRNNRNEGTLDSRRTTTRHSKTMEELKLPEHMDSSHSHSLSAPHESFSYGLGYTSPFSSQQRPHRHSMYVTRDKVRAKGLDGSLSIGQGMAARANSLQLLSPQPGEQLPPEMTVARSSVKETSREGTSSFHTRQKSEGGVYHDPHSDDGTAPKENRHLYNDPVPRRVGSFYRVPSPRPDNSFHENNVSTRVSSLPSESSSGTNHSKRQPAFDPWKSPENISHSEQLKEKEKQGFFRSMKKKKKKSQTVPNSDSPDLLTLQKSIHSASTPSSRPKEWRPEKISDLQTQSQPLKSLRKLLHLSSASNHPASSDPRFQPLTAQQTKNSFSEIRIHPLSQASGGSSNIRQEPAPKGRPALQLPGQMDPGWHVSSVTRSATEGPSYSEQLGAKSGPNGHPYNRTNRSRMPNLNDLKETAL
In short: as §1

CDK5 = CDK5 (Homo sapiens, UniProt Q00535)
In short: as §1

CDC2L5 = biological target: T4, CDC2L5 (Homo sapiens, UniProt Q14004)
T4 construct: gene CDK13
T4 sequence (Q14004 whole entry): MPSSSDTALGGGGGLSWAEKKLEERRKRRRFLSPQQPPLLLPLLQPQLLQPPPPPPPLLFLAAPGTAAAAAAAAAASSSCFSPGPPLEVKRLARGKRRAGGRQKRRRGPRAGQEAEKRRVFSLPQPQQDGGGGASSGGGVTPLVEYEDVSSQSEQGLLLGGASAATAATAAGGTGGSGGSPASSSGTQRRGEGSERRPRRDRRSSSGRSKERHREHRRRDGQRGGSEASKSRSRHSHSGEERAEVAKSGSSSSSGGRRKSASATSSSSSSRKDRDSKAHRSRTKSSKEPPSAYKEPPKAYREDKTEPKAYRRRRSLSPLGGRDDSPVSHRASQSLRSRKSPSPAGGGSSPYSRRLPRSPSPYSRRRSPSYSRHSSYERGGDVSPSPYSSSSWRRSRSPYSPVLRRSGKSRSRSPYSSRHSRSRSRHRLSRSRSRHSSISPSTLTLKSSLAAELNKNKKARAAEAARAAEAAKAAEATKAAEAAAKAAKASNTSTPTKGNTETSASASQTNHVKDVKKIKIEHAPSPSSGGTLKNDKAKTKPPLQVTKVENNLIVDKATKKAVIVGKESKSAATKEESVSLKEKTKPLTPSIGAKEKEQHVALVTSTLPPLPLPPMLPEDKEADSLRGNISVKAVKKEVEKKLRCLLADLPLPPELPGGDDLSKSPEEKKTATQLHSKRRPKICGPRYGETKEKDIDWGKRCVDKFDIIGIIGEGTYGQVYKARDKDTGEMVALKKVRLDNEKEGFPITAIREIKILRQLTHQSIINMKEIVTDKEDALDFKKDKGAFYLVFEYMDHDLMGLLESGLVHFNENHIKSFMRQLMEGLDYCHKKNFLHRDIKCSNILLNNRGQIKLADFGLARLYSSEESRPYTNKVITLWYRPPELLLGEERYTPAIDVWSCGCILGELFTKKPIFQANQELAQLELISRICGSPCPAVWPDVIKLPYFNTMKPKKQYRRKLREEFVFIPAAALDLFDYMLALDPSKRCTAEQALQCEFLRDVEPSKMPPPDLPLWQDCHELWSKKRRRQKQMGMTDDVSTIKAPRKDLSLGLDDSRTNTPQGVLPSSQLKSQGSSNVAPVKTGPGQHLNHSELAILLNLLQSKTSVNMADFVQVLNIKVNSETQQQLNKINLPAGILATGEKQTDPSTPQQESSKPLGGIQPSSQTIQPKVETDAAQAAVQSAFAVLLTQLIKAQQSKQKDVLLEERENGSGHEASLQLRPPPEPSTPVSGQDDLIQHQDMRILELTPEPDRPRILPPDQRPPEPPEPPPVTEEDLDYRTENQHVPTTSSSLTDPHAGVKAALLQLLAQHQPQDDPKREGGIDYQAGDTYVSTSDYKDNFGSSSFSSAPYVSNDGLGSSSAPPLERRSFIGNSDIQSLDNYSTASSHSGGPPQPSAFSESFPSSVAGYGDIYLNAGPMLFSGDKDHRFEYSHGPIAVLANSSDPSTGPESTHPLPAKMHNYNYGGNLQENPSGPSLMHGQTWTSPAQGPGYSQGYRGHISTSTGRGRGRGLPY
In short: as §1

SRPK2 = SRPK2 (Homo sapiens, UniProt P78362)
SRPK2, sequence (P78362 whole entry): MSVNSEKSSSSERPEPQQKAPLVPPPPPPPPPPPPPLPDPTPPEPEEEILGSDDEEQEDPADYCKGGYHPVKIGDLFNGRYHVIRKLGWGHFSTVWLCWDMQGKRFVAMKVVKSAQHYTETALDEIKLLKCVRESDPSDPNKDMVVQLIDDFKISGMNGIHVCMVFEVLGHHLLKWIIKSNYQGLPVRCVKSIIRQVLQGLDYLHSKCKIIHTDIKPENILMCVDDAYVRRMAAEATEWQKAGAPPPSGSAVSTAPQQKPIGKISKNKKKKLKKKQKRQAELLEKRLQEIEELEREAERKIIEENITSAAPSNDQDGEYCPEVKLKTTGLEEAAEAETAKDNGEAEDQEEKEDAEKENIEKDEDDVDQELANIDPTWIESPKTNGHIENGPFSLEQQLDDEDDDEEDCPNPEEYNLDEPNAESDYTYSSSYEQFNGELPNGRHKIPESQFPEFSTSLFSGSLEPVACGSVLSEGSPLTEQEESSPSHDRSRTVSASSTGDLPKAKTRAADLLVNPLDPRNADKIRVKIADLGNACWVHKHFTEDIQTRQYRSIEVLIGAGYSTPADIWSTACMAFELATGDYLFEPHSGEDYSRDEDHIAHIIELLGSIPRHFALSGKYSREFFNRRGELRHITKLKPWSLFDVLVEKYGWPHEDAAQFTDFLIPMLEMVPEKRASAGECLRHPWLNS
In short: as §1

PRKCD = PRKCD (Homo sapiens, UniProt Q05655)
In short: as §1

VPS34 = biological target: T5, VPS34 (Homo sapiens, UniProt Q8NEB9)
T5 construct: gene PIK3C3
In short: as §1

[1] = biological target: T6, ABL1(H396P)-nonphosphorylated (Homo sapiens, UniProt P00519, H396P)
T6 construct: nonphosphorylated
In short: as §1

CDK2 = CDK2 (Homo sapiens, UniProt P24941)
In short: as §1

ERK4 = biological target: T7, ERK4 (Homo sapiens, UniProt P31152)
T7 construct: gene MAPK4
In short: as §1

[2] = biological target: T8, ABL1(F317L)-phosphorylated (Homo sapiens, UniProt P00519, F317L)
T8 construct: phosphorylated
In short: as §1

NIM1 = biological target: T9, NIM1 (Homo sapiens, UniProt Q8IY84)
T9 construct: gene NIM1K
In short: as §1

[3] = biological target: T10, RSK4(Kin.Dom.2-C-terminal) (Homo sapiens, UniProt Q9UK32)
T10 construct: gene RPS6KA6; Kin.Dom.2-C-terminal
In short: as §1

SgK110 = biological target: T11, SgK110 (Homo sapiens, UniProt P0C264)
T11 construct: gene SBK3
T11 sequence (P0C264 whole entry): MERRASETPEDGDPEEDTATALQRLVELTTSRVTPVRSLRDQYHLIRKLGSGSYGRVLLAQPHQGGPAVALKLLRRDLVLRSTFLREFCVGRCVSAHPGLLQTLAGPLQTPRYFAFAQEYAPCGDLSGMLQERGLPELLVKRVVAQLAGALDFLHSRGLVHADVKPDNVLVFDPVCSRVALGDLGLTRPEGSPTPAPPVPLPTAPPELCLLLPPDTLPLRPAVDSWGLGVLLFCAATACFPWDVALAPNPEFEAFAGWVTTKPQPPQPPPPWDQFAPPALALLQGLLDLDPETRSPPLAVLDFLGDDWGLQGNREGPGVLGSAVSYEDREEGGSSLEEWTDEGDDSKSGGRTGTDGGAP
In short: as §1

RIPK4 = RIPK4 (Homo sapiens, UniProt P57078)
RIPK4, sequence (P57078 whole entry): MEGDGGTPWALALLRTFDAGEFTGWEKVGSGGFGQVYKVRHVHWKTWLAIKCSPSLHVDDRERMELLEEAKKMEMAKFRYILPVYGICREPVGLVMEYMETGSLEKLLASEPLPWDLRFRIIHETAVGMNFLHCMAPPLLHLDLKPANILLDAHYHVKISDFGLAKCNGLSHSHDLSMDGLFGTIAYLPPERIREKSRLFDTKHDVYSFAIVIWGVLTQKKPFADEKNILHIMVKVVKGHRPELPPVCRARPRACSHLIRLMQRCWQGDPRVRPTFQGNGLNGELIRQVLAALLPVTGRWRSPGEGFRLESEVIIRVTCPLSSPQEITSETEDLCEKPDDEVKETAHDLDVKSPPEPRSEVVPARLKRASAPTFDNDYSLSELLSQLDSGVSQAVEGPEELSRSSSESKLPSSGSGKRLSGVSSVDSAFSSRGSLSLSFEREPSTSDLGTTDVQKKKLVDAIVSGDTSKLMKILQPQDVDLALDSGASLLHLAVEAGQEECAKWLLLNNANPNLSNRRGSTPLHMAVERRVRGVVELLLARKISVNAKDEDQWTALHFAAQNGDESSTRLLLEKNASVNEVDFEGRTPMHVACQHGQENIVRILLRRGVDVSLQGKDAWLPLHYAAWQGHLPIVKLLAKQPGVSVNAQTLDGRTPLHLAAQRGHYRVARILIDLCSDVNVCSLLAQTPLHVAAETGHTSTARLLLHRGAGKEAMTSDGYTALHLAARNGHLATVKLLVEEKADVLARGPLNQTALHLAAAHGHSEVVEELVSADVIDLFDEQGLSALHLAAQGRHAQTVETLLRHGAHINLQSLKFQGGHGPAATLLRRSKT
In short: as §1

ARK5 = biological target: T12, ARK5 (Homo sapiens, UniProt O60285)
T12 construct: gene NUAK1
In short: as §1

PIK3CA(E545K) = PIK3CA(E545K) (Homo sapiens, UniProt P42336, E545K)
In short: as §1

PAK6 = PAK6 (Homo sapiens, UniProt Q9NQU5)
PAK6, sequence (Q9NQU5 whole entry): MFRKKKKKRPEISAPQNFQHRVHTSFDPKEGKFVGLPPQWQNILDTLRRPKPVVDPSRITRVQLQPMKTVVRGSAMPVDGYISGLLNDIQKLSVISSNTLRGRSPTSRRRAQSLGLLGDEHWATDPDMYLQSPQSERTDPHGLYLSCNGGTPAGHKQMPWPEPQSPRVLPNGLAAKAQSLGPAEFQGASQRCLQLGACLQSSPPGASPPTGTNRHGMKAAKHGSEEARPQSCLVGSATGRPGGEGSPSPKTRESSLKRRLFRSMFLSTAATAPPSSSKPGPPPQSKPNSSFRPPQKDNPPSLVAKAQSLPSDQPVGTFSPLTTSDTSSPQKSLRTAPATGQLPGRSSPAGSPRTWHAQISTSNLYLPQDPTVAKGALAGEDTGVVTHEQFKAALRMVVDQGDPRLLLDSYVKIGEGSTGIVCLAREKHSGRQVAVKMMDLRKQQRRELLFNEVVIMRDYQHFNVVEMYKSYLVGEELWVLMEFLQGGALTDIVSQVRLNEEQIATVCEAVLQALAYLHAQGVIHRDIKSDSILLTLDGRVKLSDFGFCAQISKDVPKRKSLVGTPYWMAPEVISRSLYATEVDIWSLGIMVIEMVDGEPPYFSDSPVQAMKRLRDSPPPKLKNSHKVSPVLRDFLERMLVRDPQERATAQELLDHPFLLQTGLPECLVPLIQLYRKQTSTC
In short: as §1

remaining binding at 100 µM (MRCKA): 80%
remaining binding at 100 µM (SLK): 78%
remaining binding at 100 µM (PYK2): 80%
remaining binding at 100 µM (MEK5): 74%
remaining binding at 100 µM (CDKL5): 96%
remaining binding at 100 µM (CDK5): 61%
remaining binding at 100 µM (CDC2L5): 74%
remaining binding at 100 µM (SRPK2): 99%
remaining binding at 100 µM (PRKCD): 90%
remaining binding at 100 µM (VPS34): 64%
remaining binding at 100 µM [1]: 82%
remaining binding at 100 µM (CDK2): 85%
remaining binding at 100 µM (ERK4): 89%
remaining binding at 100 µM [2]: 93%
remaining binding at 100 µM (NIM1): 65%
remaining binding at 100 µM [3]: 57%
remaining binding at 100 µM (SgK110): 93%
remaining binding at 100 µM (RIPK4): 64%
remaining binding at 100 µM (ARK5): 100%
remaining binding at 100 µM (PIK3CA(E545K)): 63%
remaining binding at 100 µM (PAK6): 98%
SMILES: C=C(C)[C@H]1CC=C(C)C(=O)C1 [S-carvone]
